Measurements from ChEMBL document CHEMBL1201862, “PubChem BioAssay data set” (2004).
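Grown in 96-well plates, cells were treated for 48 hours with each compound at five concentrations. Insufficient inhibition: endpoint recorded as highest concentration tested. GI50 marks 50% less growth.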 The source made the active and inactive calls. Rule as the data show it: active = GI50 up to about 1.1 µM and inactive = higher.

Assays:
Test in all cases: NCI tumour cell line growth inhibition, 48 h
[1] = tested on: CCRF-CEM
[2] = tested on: HCT-116
[3] = tested on: IGROV-1
[4] = tested on: K562
[5] = tested on: LOX IMVI
[6] = tested on: Malme-3M
[7] = tested on: NCI-H226
[8] = tested on: NCI-H522
[9] = tested on: OVCAR-5
[10] = tested on: RPMI-8226
[11] = tested on: RXF 393
[12] = tested on: SF-268
[13] = tested on: SF-295
[14] = tested on: SF-539
[15] = tested on: SK-MEL-5
[16] = tested on: SK-OV-3
[17] = tested on: SNB-19
[18] = tested on: SNB-75
[19] = tested on: UACC-257
[20] = tested on: UO-31

Compound	GI50 [1]	GI50 [2]	GI50 [3]	GI50 [4]	GI50 [5]	GI50 [6]	GI50 [7]	GI50 [8]	GI50 [9]	GI50 [10]	GI50 [11]	GI50 [12]	GI50 [13]	GI50 [14]	GI50 [15]	GI50 [16]	GI50 [17]	GI50 [18]	GI50 [19]	GI50 [20]
COc1ccc(C(=C2C=CC=C2)c2ccc(OC)cc2)cc1	21.9 µM (inactive)	26.4 µM (inactive)	52 µM (inactive)	22.2 µM (inactive)	17.2 µM (inactive)	28.8 µM (inactive)	50.5 µM (inactive)	19.3 µM (inactive)	32.3 µM (inactive)	0.783 µM (active)	25.2 µM (inactive)	55.7 µM (inactive)	16.9 µM (inactive)	10.8 µM (inactive)	30.2 µM (inactive)	18.2 µM (inactive)	28 µM (inactive)	59 µM (inactive)	34.4 µM (inactive)	28.5 µM (inactive)
C#CCNC(=O)CCC(N)C(=O)O (stereo not given)	> 100 µM (inactive)	> 100 µM (inactive)	> 100 µM (inactive)	> 100 µM (inactive)	> 100 µM (inactive)	> 100 µM (inactive)	> 100 µM (inactive)	> 100 µM (inactive)	> 100 µM (inactive)	> 100 µM (inactive)	> 100 µM (inactive)	> 100 µM (inactive)	> 100 µM (inactive)	> 100 µM (inactive)	> 100 µM (inactive)	> 100 µM (inactive)	> 100 µM (inactive)	> 100 µM (inactive)	> 100 µM (inactive)	> 100 µM (inactive)
Oc1cc2cc(O)nc(O)c2c(O)n1	> 100 µM (inactive)	> 100 µM (inactive)	> 100 µM (inactive)	> 100 µM (inactive)	> 100 µM (inactive)	> 100 µM (inactive)	> 100 µM (inactive)	> 100 µM (inactive)	> 100 µM (inactive)	> 100 µM (inactive)	> 100 µM (inactive)	> 100 µM (inactive)	> 100 µM (inactive)	> 100 µM (inactive)	> 100 µM (inactive)	> 100 µM (inactive)	> 100 µM (inactive)	> 100 µM (inactive)	> 100 µM (inactive)	> 100 µM (inactive)
C[C@H](N)C(=O)N[C@@H]1[C@H]2C(=C(O)C[C@@H](O)[C@@H]2O)C(=O)O[C@@H]1C	> 53.8 µM (inactive)	> 100 µM (inactive)	> 100 µM (inactive)	> 100 µM (inactive)	> 100 µM (inactive)	> 100 µM (inactive)	> 100 µM (inactive)	> 100 µM (inactive)	> 100 µM (inactive)	> 100 µM (inactive)	> 100 µM (inactive)	> 100 µM (inactive)	> 100 µM (inactive)	> 100 µM (inactive)	> 100 µM (inactive)	> 100 µM (inactive)	77.4 µM (inactive)	> 100 µM (inactive)	> 100 µM (inactive)	> 100 µM (inactive)
COC1=C(C)C(=O)C2=C(C1=O)[C@@H]1[C@@H]3Cc4c(OC(=O)CO)c(C)c(OC)c(O)c4[C@H](CNC(=O)C(C)=O)N3[C@@H](C#N)[C@H](C2)N1C	0.0271 µM (active)	0.0573 µM (active)	0.0177 µM (active)	< 0.01 µM (active)	< 0.01 µM (active)	0.0562 µM (active)	0.0871 µM (active)	< 0.01 µM (active)	0.098 µM (active)	< 0.0142 µM (active)	0.0184 µM (active)	0.0552 µM (active)	0.199 µM (active)	0.0528 µM (active)	0.0154 µM (active)	0.415 µM (active)	0.0414 µM (active)	< 0.0353 µM (active)	< 0.0152 µM (active)	0.0738 µM (active)
CC[N+]1(C)CCC(O)(c2ccccc2)C(C(=O)c2ccccc2)C1 (stereo not given)	2.04 µM (inactive)	13.6 µM (inactive)	19.8 µM (inactive)	2.11 µM (inactive)	15.4 µM (inactive)	16.7 µM (inactive)	18.6 µM (inactive)	1.75 µM (inactive)	17.9 µM (inactive)	2 µM (inactive)	12.4 µM (inactive)	23.6 µM (inactive)	19 µM (inactive)	16.7 µM (inactive)	18.6 µM (inactive)	17.3 µM (inactive)	15.5 µM (inactive)	12.6 µM (inactive)	17.5 µM (inactive)	18.7 µM (inactive)
CC12CCC(C(=O)OC1=O)C(C)(C)O2 (stereo not given)	> 100 µM (inactive)	> 100 µM (inactive)	> 100 µM (inactive)	> 100 µM (inactive)	> 100 µM (inactive)	> 100 µM (inactive)	> 100 µM (inactive)	> 100 µM (inactive)	> 100 µM (inactive)	> 100 µM (inactive)	> 100 µM (inactive)	> 100 µM (inactive)	> 100 µM (inactive)	> 100 µM (inactive)	> 100 µM (inactive)	> 100 µM (inactive)	> 100 µM (inactive)	> 100 µM (inactive)	> 100 µM (inactive)	> 100 µM (inactive)
